Laboratory results taken from ChEMBL document CHEMBL3272039, “Potenial antitumor agents. 28. Deoxyribonucleic acid polyintercalating agents” (J Med Chem, 1978).

Key:
[1] = tested on: P388; assay: Antitumor activity against mouse P388 cells allografted in ip dosed BDF1 mouse at optimum dose administered qd for 5 days relative to control; assay type: functional
[2] = tested on: Mus musculus; assay: (§1) Toxicity in ip dosed BDF1 mouse allografted with mouse P388 cells administered qd for 5 days; assay type: organism-based; conditions: mouse, in vivo, 120 h
[3] = tested on: Mus musculus; assay: (§2) Toxicity in ip dosed BDF1 mouse allografted with mouse L1210 cells administered qd for 5 days; assay type: organism-based; conditions: mouse, in vivo, 120 h
[4] = tested on: L1210; assay: Antitumor activity against mouse L1210 cells allografted in ip dosed BDF1 mouse at optimum dose administered qd for 5 days relative to control; assay type: functional
[5] = Lipophilic-hydrophilic balance, Rm of the compound by reversed-phase chromatographic analysis; assay type: physicochemical
[6] = species: Bos taurus; assay: Displacement of ethidium bromide from calf thymus DNA by spectrofluorometric analysis
[7] = tested on: Pseudoalteromonas; assay: Induction of bacteriophage PM2 closed circular DNA unwinding assessed as drug per nucleic acid phosphate ratio at equivalence by viscometric analysis
[8] = as §1; assay type: organism-based; conditions: BDF1, mouse, in vivo
[9] = as §2; assay type: organism-based; conditions: BDF1, mouse, in vivo

Row | SMILES | ILS [1] | Activity [2] | Activity [3] | ILS [4] | Rm [5] | C50 [6] | Ratio [7] | MTD at 120 h [8] | MTD at 120 h [9]
1 | Cl.O.O=S(=O)(CCNc1ncnc2ccccc12)Nc1ccc(Nc2c3ccccc3nc3ccccc23)cc1 | 100% | 100 mg/kg/day | 50 mg/kg/day | 57% | -0.53 | 0.67 µM |  |  | 
2 | COc1cc(NS(C)(=O)=O)ccc1Nc1c2ccccc2nc2ccccc12 [AMSACRINE] |  | 6.7 mg/kg/day | 6.7 mg/kg/day | 114% | 0.18 | 10.8 µM | 0.082 |  | 
3 | c1ccc(Nc2c3ccccc3nc3ccccc23)cc1 | >25% |  |  | >25% | 0.43 | 13 µM |  | 105 mg/kg/day | 105 mg/kg/day
4 | Cl.O.O=S(=O)(CCCCCS(=O)(=O)Nc1ccc(Nc2c3ccccc3nc3ccccc23)cc1)Nc1ccc(Nc2c3ccccc3nc3ccccc23)cc1 | 49% | 210 mg/kg/day | 210 mg/kg/day | 28% | -0.02 | 0.07 µM |  |  | 
5 | Br.O.O=S(=O)(CCNc1ccnc2ccccc12)Nc1ccc(Nc2c3ccccc3nc3ccccc23)cc1 | 36% | 90 mg/kg/day |  | >25% | -0.54 | 0.12 µM | 0.12 |  | 90 mg/kg/day
6 | Cl.O.O=S(=O)(CCCCCNc1ccnc2ccccc12)Nc1ccc(Nc2c3ccccc3nc3ccccc23)cc1 | 37% | 200 mg/kg/day |  | >25% | -0.24 | 0.4 µM |  |  | 200 mg/kg/day
7 | Cl.O.O=S(=O)(CCCS(=O)(=O)Nc1ccc(Nc2c3ccccc3nc3ccccc23)cc1)Nc1ccc(Nc2c3ccccc3nc3ccccc23)cc1 | 29% | 250 mg/kg/day |  | >25% | -0.16 | 0.064 µM |  |  | 250 mg/kg/day
8 | CS(=O)(=O)Nc1ccc(Nc2c3ccccc3nc3ccccc23)cc1 | 223% | 45 mg/kg/day | 45 mg/kg/day | 107% | 0 | 5.9 µM |  |  | 
9 | Br.O.O=S(=O)(CCCCCCNc1ccnc2ccccc12)Nc1ccc(Nc2c3ccccc3nc3ccccc23)cc1 | >25% |  |  | >25% | -0.09 | 0.65 µM |  | 75 mg/kg/day | 75 mg/kg/day
10 | CS(=O)(=O)Nc1ccc(Nc2ccnc3ccccc23)cc1 | >25% |  |  | >25% | -0.39 | 490 µM |  | 200 mg/kg/day | 200 mg/kg/day
11 | COc1cc(NS(=O)(=O)CCCS(=O)(=O)Nc2ccc(Nc3c4ccccc4nc4ccccc34)c(OC)c2)ccc1Nc1c2ccccc2nc2ccccc12.CS(=O)(=O)O.O |  | 50 mg/kg/day | 50 mg/kg/day |  | 0.22 |  |  |  | 
12 | Cl.c1ccc(OCCCOc2ccccc2Nc2c3ccccc3nc3ccccc23)c(Nc2c3ccccc3nc3ccccc23)c1 | >25% |  |  |  | 0.28 | 0.6 µM | 0.072 | 50 mg/kg/day | 
13 | CCOc1cc(NS(C)(=O)=O)ccc1Nc1c2ccccc2nc2ccccc12 | 218% | 60 mg/kg/day | 60 mg/kg/day | 71% | 0.37 | 19 µM |  |  | 
14 | COc1cc(NS(=O)(=O)CCCCS(=O)(=O)Nc2ccc(Nc3ccnc4ccccc34)c(OC)c2)ccc1Nc1ccnc2ccccc12.Cl.O | >25% |  |  |  | -0.28 | 7.5 µM | 0.15 | 12 mg/kg/day | 
15 | COc1cc(NS(=O)(=O)CCCCCS(=O)(=O)Nc2ccc(Nc3c4ccccc4nc4ccccc34)c(OC)c2)ccc1Nc1c2ccccc2nc2ccccc12.CS(=O)(=O)O.O | 71% | 400 mg/kg/day | 400 mg/kg/day | 36% | 0.35 | 0.14 µM |  |  | 
16 | Br.O=S(=O)(CCCCNc1ccnc2ccccc12)Nc1ccc(Nc2c3ccccc3nc3ccccc23)cc1 | 76% | 75 mg/kg/day | 75 mg/kg/day | 29% | -0.31 | 0.18 µM | 0.091 |  | 
17 | Cl.O.O=S(=O)(CCCNc1c2ccccc2nc2ccccc12)Nc1ccc(Nc2c3ccccc3nc3ccccc23)cc1 | 38% | 300 mg/kg/day |  | >25% | -0.25 | 0.1 µM |  |  | 300 mg/kg/day
18 | Cl.O.O=S(=O)(CCNc1c2ccccc2nc2ccccc12)Nc1ccc(Nc2c3ccccc3nc3ccccc23)cc1 | 31% | 60 mg/kg/day |  | >25% | -0.17 | 0.09 µM | 0.078 |  | 60 mg/kg/day
19 | Cl.O.O=S(=O)(CCCCNc1c2ccccc2nc2ccccc12)Nc1ccc(Nc2c3ccccc3nc3ccccc23)cc1 | >25% |  |  |  | -0.1 | 0.09 µM | 0.066 | 37 mg/kg/day | 
20 | Cl.O.O=S(=O)(CCCCCNc1c2ccccc2nc2ccccc12)Nc1ccc(Nc2c3ccccc3nc3ccccc23)cc1 | 63% | 250 mg/kg/day | 250 mg/kg/day | 35% | -0.04 | 0.17 µM |  |  | 
21 | COc1cc(NS(=O)(=O)CCCCS(=O)(=O)Nc2ccc(Nc3c4ccccc4nc4ccccc34)c(OC)c2)ccc1Nc1c2ccccc2nc2ccccc12 | 39% | > 500 mg/kg/day | > 500 mg/kg/day | 26% | 0.27 | 0.057 µM | 0.041 |  | 
